According to patent US20120189603A1, “STORAGE-STABLE, SYNERGISTIC MICROBICIDAL CONCENTRATES CONTAINING AN ISOTHIAZOLONE, AN AMINE AND AN OXIDIZING AGENT” (L"AIR LIQUIDE, SOCIETE ANONYME POUR L'ETUDE ET L' …, priority 2009, published 2012):

Tests used:
Test in all cases: Germ-count reduction test, sterile town water, pH adjusted to 8.2
Parameters in all cases: key: −: growth-free; +: slight growth; ++: moderate growth; +++: considerable growth; ++++: massive growth; L: lawn-like growth
Details in all cases: +0.01% 2
[1] = test system: C. albicans; assay type: cell-based, Candida albicans
Method: (§1) The pH was adjusted to 8.2 with HCl.
A 4-day-old Candida albicans culture (CSA+grape sugar) is elutriated with 5 ml of physiological sodium chloride solution and adjusted in accordance with a barium sulphate standard (see DVG Guideline). The titre of the Candida albicans suspension is 10^8 CFU/ml.
(§2) A dilution series of four concentrations is prepared from the active ingredient to be tested and poured into 10 ml sterile tubes. One dilution series is required per test germ. Each tube is inoculated with 0.1 ml of the individual germ suspensions.
(§3) […] The bacteria are streaked on CSA and incubated for 48 hours at 37° C. (Pseudomonas aeruginosa and Staphylococcus aureus) or 25° C. (Pseudomonas fluorescens/Pseudomonas putida). The fungi are streaked on Sabouraud agar and incubated for 48 hours at 37° C. (Candida albicans) and 25° C. (Aspergillus niger).

[2] = test system: P. funiculosum; assay type: cell-based
[3] = test system: E. coli; assay type: cell-based
[4] = test system: S. aureus; assay type: cell-based, Staphylococcus aureus
Method: as §1
(§4) 24-Hour CSL cultures are prepared from 24-hour CS slant agar cultures of Staphylococcus aureus/Pseudomonas aeruginosa. Incubation takes place at 37° C.
(§5) The titre of the bacteria suspensions is ca. 10^9 CFU/ml.
as §2, §3

[5] = test system: P. aeruginosa; assay type: cell-based, Pseudomonas aeruginosa
Method: as §1, §4, §5, §2, §3

[6] = test system: A. niger; assay type: cell-based, Aspergillus niger
Method: as §1
A 7-14-day-old Aspergillus niger culture on Sabouraud agar is elutriated with 5 ml of NaCl, filtered through a glass filter containing glass wool and topped up to 200 ml. This suspension has a titre of ca. 10^7 CFU/ml.
as §2, §3

Structure (SMILES): CCCCCCCCCCCCN(CCCN)CCCN [compound 2, bis(aminopropyl)dodecylamine]
- growth ([1]; 1 h): −
- growth ([1]; 3 h): −
- growth ([1]; 6 h): −
- growth ([1]; 24 h): −
- growth ([2]; 1 h): −
- growth ([2]; 3 h): −
- growth ([2]; 6 h): −
- growth ([2]; 24 h): −
- growth ([3]; 1 h): +
- growth ([3]; 3 h): −
- growth ([3]; 6 h): −
- growth ([3]; 24 h): −
- growth ([4]; 1 h): −
- growth ([4]; 3 h): −
- growth ([4]; 6 h): −
- growth ([4]; 24 h): −
- growth ([5]; 1 h): +
- growth ([5]; 3 h): +
- growth ([5]; 6 h): −
- growth ([5]; 24 h): −
- growth ([6]; 1 h): −
- growth ([6]; 3 h): −
- growth ([6]; 6 h): −
- growth ([6]; 24 h): −
